These results are taken from patent US9388126B2, “Sigma receptor ligands and methods of modulating cellular protein homeostasis using same” (Drexel University, priority 2012, dated 2016).

Common to all, as to format: cell-based, human
Test [1] concerns MDA-MB-468 breast adenocarcinoma cells. Briefly: LC3 lipidation (LC3II) immunoblot. Conditions: 24 hours. The protocol:
(§1) Cells were lysed and proteins extracted in a modified RIPA buffer (25 mM Tris-HCl pH 7.6, 150 mM NaCl, 1% NP-40, 1% sodium deoxycholate and 0.1% SDS) supplemented with 10% glycerol (volume/volume), complete protease inhibitor cocktail (Roche), and Halt phosphatase inhibitor cocktail (Pierce). Approximately 10-20 μg of detergent soluble protein were resolved on NOVEX 10-20% polyacrylamide Tris-glycine gels (InVitrogen). Immunoblots were performed in a 20 mM Tris-buffered 137 mM saline solution (pH 7.6) containing 0.1% Tween-20 (polyoxyethylene (20) sorbitan monolaurate) and 5% (weight/volume) blotting grade non-fat dry milk (BioRad). The Lumigen PS-3 enhanced chemiluminescence kit (GE Healthcare) was used to reveal immunoblotted proteins.
Initially, an established immunoblot-based assay to detect microtubule associated protein light chain 3 (LC3) lipidation was used to test for the activation of autophagy. […] Since transient transfections can produce spurious GFP-LC3 aggregates, stable GFP-LC3 transfected populations of MDA-MB-468 (GFP-LC3) were generated. These cells were treated for 24 hours with increasing concentrations of Sigma receptor antagonists and agonists, and were compared to basal and DMSO treated controls (FIGS. 4B & 4C).
On the technique in general: Immunoblotting shows a protein as a band on a membrane.

Test [2] relates to MDA-MB-468 cells. Briefly: ER stress / UPR marker immunoblots. Conditions: for EC50: mean of two determinations. On the procedure: as §1
Whether Sigma antagonists immediately induce autophagy or whether it is activated downstream of other cellular events was next examined. As Sigma1 is highly enriched in the ER, next examined was whether antagonist treatment could induce ER stress mediated UPR. Components of the IRE1α-JNK1/2 and eIF2α-ATF4 branches of the UPR as well as the UPR-associated ER chaperone, GRP78/BiP, were assayed as indicators of activated UPR.
All of the above-mentioned markers of ER stress were evaluated following treatment with increasing doses of Sigma ligands in order to compare UPR with the dose-responsive activation of autophagy. Sigma1 antagonist, IPAG, activated the UPR in a dose-responsive manner (FIG. 6).

Test [3] deals with MDA-MB-468 cells. Put plainly: SubG1 population by flow cytometry. The settings on record: 10 μM, 48 h. On the procedure: FIG. 29 illustrates the time-course of a Sigma1 antagonist inducing apoptotic cell death of breast adenocarcinoma cells. Treatment with Sigma1 antagonist, IPAG, induces apoptotic cell death of MDA-MB-468 cells, as indicated by the percentage of subG1 phase cells. […] The far left panel represents cells treated or 24 hours with DMSO (vehicle control).
FIG. 37, comprising FIGS. 37A-37D, illustrates that inhibition of autophagy accelerates and/or potentiates Sigma1 antagonist induced apoptosis. FIG. 37A is a graph illustrating the time-course of Sigma antagonist-induced cell death as measured by flow cytometry. MDA-MB-468 cells were treated with DMSO (control), 10 μM IPAG (antagonist), or 10 μM PRE084 (agonist), fixed and stained with propidium iodide for DNA content analysis. The subG1 population was quantified and used as a measure of cell death. Data are from 4 independent determinations. FIG. 37B is an image of a Western blot of caspase 3 (Asp175) cleavage. IPAG induced apoptotic cell death occurred at the 48 hour treatment time point. FIG. 37C is a graph illustrating DA-MB-468 cells treated for 24 hours with a combination of IPAG (10 μM) and autophagy inhibitor 3-methyladenine (3-MA, 5 mM). Cell death was measured by trypan blue exclusion. […] For FIGS. 37A-37C, statistical significance was determined by two-way ANOVA followed by Bonferroni post-test, ***P<0.001.

For another test, the system named is PC3 and DU145 PCa cells. Put plainly: UPR induction in prostate cancer cell lines. The settings on record: preliminary experiments. An excerpt: FIG. 15 is an image of an immunoblot illustrating induction of UPR in a prostate cancer cell line. […] P-IRE1α indicates phosphorylated IRE1α. Similar results were obtained with DU145 prostate cancer cells.
This might be due to an accumulation of ubiquitylated proteins or due to an increase in ubiquitin ligase activity. Progression of the ER stress response could be monitored by a set of markers, many of which have been directly linked to the UPR. The most extensively investigated sensors that initiate the UPR are IRE1α, PERK, and ATF6, which transduce signals to a cascade of effectors. Many of these UPR 4 effectors function as transcription factors that induce the synthesis of ER chaperones, such as GRP78/BiP and GRP94, involved in maintaining protein homeostasis.

Molecules are shown by their SMILES. Like-named read-outs stand apart in the source and are kept apart here.

With `N=C(Nc1ccc(I)cc1)NC1C2CC3CC(C2)CC1C3` (stereo not drawn) [IPAG, 1-(4-iodophenyl)-3-(2-adamantyl)guanidine], in test [1] (10 μM), the “conversion of LC3 to LC3II (autophagosome formation)” value is “converted LC3 to LC3II”. In addition, the EC50 came out at 7000 nM in test [1] (Homo sapiens, MDA-MB-468, two independent determinations, read-out: mean EC50 of LC3 lipid conjugation (LC3II induction)); 1700 nM in the test on MDA-MB-468 cells [2] (24 hours, read-out: EC50 for phosphorylation of JNK (Thr183/Tyr185)); 500 nM in the test on MDA-MB-468 cells [2] (Homo sapiens, MDA-MB-468, 24 h, read-out: EC50 for induction of ATF4); 900 nM with MDA-MB-468 cells [2] (Homo sapiens, MDA-MB-468, 24 h, read-out: EC50 for induction of IRE1α); 1600 nM with MDA-MB-468 cells [2] (Homo sapiens, MDA-MB-468, 24 h, read-out: EC50 for phosphorylation of JNK (Thr183/Tyr185)); 2300 nM in the test with MDA-MB-468 cells [2] (Homo sapiens, MDA-MB-468, 24 h, read-out: EC50 for phosphorylation of eIF2α (Ser51)). Besides, the EC50 in the test on MDA-MB-468 cells [2] (Homo sapiens, MDA-MB-468, 24 h, read-out: EC50 for phosphorylation of p38MAPK (Thr180/Tyr182)) was 500 nM; in the test on MDA-MB-468 cells [2] (Homo sapiens, MDA-MB-468, 24 hours, read-out: EC50 for induction of GRP78/BiP) it was 1400 nM. Besides, the “activation of UPR markers at a dose that does not produce autophagosomes” value in the test with MDA-MB-468 cells [2] (1 μM, 24 hours) was “salient activation of at least seven markers of UPR”. In addition, the “subG1 (dead, apoptotic) cells” value in the test on MDA-MB-468 cells [3] amounted to 31.7%. Moreover, the “IRE1α and BiP levels” value in the test on PC3 and DU145 PCa cells is “salient induction of IRE1α and BiP levels”.
